“Also recorded” adds a separate entry of the source.
How the values were obtained:
HERK1‐CD = experiment: HERK1-CD kinase activity (autophosphorylation); assay type: biochemical, Arabidopsis thaliana; details: 5 μM
Meloidogyne incognita [1] = experiment: Rice root-knot nematode disease, preventive root treatment; assay type: in vivo; details: roots pretreated twice with 3 mL of 5 μM, 800 pre-J2s
Meloidogyne incognita [2] = experiment: Established rice root-knot nematode disease (inhibitor applied after inoculation); assay type: in vivo; details: irrigated three days after inoculation
PER5 = details: 5 μM for 24 h, confocal microscopy
tobacco roots = experiment: RNA-seq of tobacco roots (DEGs, GO and KEGG classification and enrichment); assay type: in vivo
Ralstonia solanacearum [3] = assay type: in vivo; details: Arabidopsis seedlings pretreated with 5 μM, 4 days after inoculation
Ralstonia solanacearum [4] = assay type: in vivo, tobacco; details: 5 μM irrigated twice two days after inoculation
THE1‐CD = experiment: THE1-CD kinase activity (autophosphorylation); assay type: biochemical, Arabidopsis thaliana; details: 5 μM
FRK1 = details: 5 μM for 24 h, confocal microscopy
[5] = KEGG ko00040 Pentose and glucuronate interconversions
[6] = KEGG ko00052 Galactose metabolism
[7] = KEGG ko00062 Fatty acid elongation
[8] = KEGG ko00071 Fatty acid degradation
[9] = KEGG ko00073 Cutin, suberine and wax biosynthesis
[10] = KEGG ko00100 Steroid biosynthesis
[11] = KEGG ko00250 Alanine, aspartate and glutamate metabolism
[12] = KEGG ko00270 Cysteine and methionine metabolism
[13] = KEGG ko00290 Valine, leucine and isoleucine biosynthesis
[14] = KEGG ko00330 Arginine and proline metabolism
[15] = KEGG ko00350 Tyrosine metabolism
[16] = KEGG ko00360 Phenylalanine metabolism
[17] = KEGG ko00410 beta-Alanine metabolism
[18] = KEGG ko00430 Taurine and hypotaurine metabolism
[19] = KEGG ko00460 Cyanoamino acid metabolism
[20] = KEGG ko00480 Glutathione metabolism
[21] = KEGG ko00500 Starch and sucrose metabolism
[22] = KEGG ko00511 Other glycan degradation
[23] = KEGG ko00520 Amino sugar and nucleotide sugar metabolism
[24] = KEGG ko00531 Glycosaminoglycan degradation
[25] = KEGG ko00561 Glycerolipid metabolism
[26] = KEGG ko00564 Glycerophospholipid metabolism
[27] = KEGG ko00590 Arachidonic acid metabolism
[28] = KEGG ko00591 Linoleic acid metabolism
[29] = KEGG ko00592 alpha-Linolenic acid metabolism
[30] = KEGG ko00603 Glycosphingolipid biosynthesis - globo series
[31] = KEGG ko00604 Glycosphingolipid biosynthesis - ganglio series
[32] = KEGG ko00650 Butanoate metabolism
[33] = KEGG ko00730 Thiamine metabolism
[34] = KEGG ko00760 Nicotinate and nicotinamide metabolism
[35] = KEGG ko00770 Pantothenate and CoA biosynthesis
[36] = KEGG ko00904 Diterpenoid biosynthesis
[37] = KEGG ko00905 Brassinosteroid biosynthesis
[38] = KEGG ko00906 Carotenoid biosynthesis
[39] = KEGG ko00908 Zeatin biosynthesis
[40] = KEGG ko00909 Sesquiterpenoid and triterpenoid biosynthesis
[41] = KEGG ko00910 Nitrogen metabolism
[42] = KEGG ko00940 Phenylpropanoid biosynthesis
[43] = KEGG ko00941 Flavonoid biosynthesis
[44] = KEGG ko00950 Isoquinoline alkaloid biosynthesis
[45] = KEGG ko00960 Tropane, piperidine and pyridine alkaloid biosynthesis
[46] = KEGG ko00980 Metabolism of xenobiotics by cytochrome P450
[47] = KEGG ko00982 Drug metabolism - cytochrome P450
[48] = KEGG ko01040 Biosynthesis of unsaturated fatty acids
[49] = KEGG ko03320 PPAR signaling pathway
[50] = KEGG ko04010 MAPK signaling pathway
[51] = KEGG ko04011 MAPK signaling pathway - yeast
[52] = KEGG ko04020 Calcium signaling pathway
[53] = KEGG ko04022 cGMP-PKG signaling pathway
[54] = KEGG ko04075 Plant hormone signal transduction
[55] = KEGG ko04140 Regulation of autophagy
[56] = KEGG ko04211 Longevity regulating pathway
[57] = KEGG ko04212 Longevity regulating pathway - worm
[58] = KEGG ko04370 VEGF signaling pathway
[59] = KEGG ko04380 Osteoclast differentiation
[60] = KEGG ko04614 Renin-angiotensin system
[61] = KEGG ko04626 Plant-pathogen interaction
[62] = KEGG ko04650 Natural killer cell mediated cytotoxicity
[63] = KEGG ko04660 T cell receptor signaling pathway
[64] = KEGG ko04662 B cell receptor signaling pathway
[65] = KEGG ko04712 Circadian rhythm - plant
[66] = KEGG ko04720 Long-term potentiation
[67] = KEGG ko04723 Retrograde endocannabinoid signaling
[68] = KEGG ko04724 Glutamatergic synapse
[69] = KEGG ko04810 Regulation of actin cytoskeleton
[70] = KEGG ko04920 Adipocytokine signaling pathway
[71] = KEGG ko04921 Oxytocin signaling pathway
[72] = KEGG ko04922 Glucagon signaling pathway
[73] = KEGG ko04974 Protein digestion and absorption
[74] = KEGG ko04975 Fat digestion and absorption
[75] = tobacco roots, 5 μM irrigated twice, coregulated genes, vs DMSO

Structure (SMILES): c1nc2nc(Nc3ccc(N4CCOCC4)cc3)nc(NC3CCCCC3)c2[nH]1 [Reversine]
- Inhibition rate of HERK1-CD kinase activity (HERK1‐CD): lower than 55%
- Control of rice root-knot nematode disease (Meloidogyne incognita [1]): better preventive effects than staurosporine; also recorded: alleviated soil‐borne diseases
- Effect on established rice root-knot nematode disease (Meloidogyne incognita [2]): could not completely prevent the occurrence of the diseases or cure already diseased plants
- Expression of PER5 in roots (PER5): did not affect the expression levels
- Enrichment_score (tobacco roots; [5]): 2.934
- ListHits (tobacco roots; [5]): 15
- Enrichment_score (tobacco roots; [6]): 3.3846
- ListHits (tobacco roots; [6]): 8
- Enrichment_score (tobacco roots; [7]): 4.956
- ListHits (tobacco roots; [7]): 8
- Enrichment_score (tobacco roots; [8]): 1.21
- ListHits (tobacco roots; [8]): 2
- Enrichment_score (tobacco roots; [9]): 7.653
- ListHits (tobacco roots; [9]): 15
- Enrichment_score (tobacco roots; [10]): 3.7618
- ListHits (tobacco roots; [10]): 6
- Enrichment_score (tobacco roots; [11]): 2.781
- ListHits (tobacco roots; [11]): 7
- Enrichment_score (tobacco roots; [12]): 1.037
- ListHits (tobacco roots; [12]): 5
- Enrichment_score (tobacco roots; [13]): 0.913
- ListHits (tobacco roots; [13]): 1
- Enrichment_score (tobacco roots; [14]): 1.626
- ListHits (tobacco roots; [14]): 4
- Enrichment_score (tobacco roots; [15]): 1.051
- ListHits (tobacco roots; [15]): 2
- Enrichment_score (tobacco roots; [16]): 3.252
- ListHits (tobacco roots; [16]): 6
- Enrichment_score (tobacco roots; [17]): 0.7434
- ListHits (tobacco roots; [17]): 2
- Enrichment_score (tobacco roots; [18]): 2.082
- ListHits (tobacco roots; [18]): 1
- Enrichment_score (tobacco roots; [19]): 1.927
- ListHits (tobacco roots; [19]): 5
- Enrichment_score (tobacco roots; [20]): 0.8174
- ListHits (tobacco roots; [20]): 3
- Enrichment_score (tobacco roots; [21]): 2.951
- ListHits (tobacco roots; [21]): 33
- Enrichment_score (tobacco roots; [22]): 1.531
- ListHits (tobacco roots; [22]): 1
- Enrichment_score (tobacco roots; [23]): 2.188
- ListHits (tobacco roots; [23]): 14
- Enrichment_score (tobacco roots; [24]): 1.406
- ListHits (tobacco roots; [24]): 1
- Enrichment_score (tobacco roots; [25]): 2.775
- ListHits (tobacco roots; [25]): 8
- Enrichment_score (tobacco roots; [26]): 3.221
- ListHits (tobacco roots; [26]): 13
- Enrichment_score (tobacco roots; [27]): 3.154
- ListHits (tobacco roots; [27]): 2
- Enrichment_score (tobacco roots; [28]): 6.195
- ListHits (tobacco roots; [28]): 5
- Enrichment_score (tobacco roots; [29]): 5.4777
- ListHits (tobacco roots; [29]): 12
- Enrichment_score (tobacco roots; [30]): 2.739
- ListHits (tobacco roots; [30]): 1
- Enrichment_score (tobacco roots; [31]): 5.782
- ListHits (tobacco roots; [31]): 1
- Enrichment_score (tobacco roots; [32]): 2.041
- ListHits (tobacco roots; [32]): 2
- Enrichment_score (tobacco roots; [33]): 1.859
- ListHits (tobacco roots; [33]): 1
- Enrichment_score (tobacco roots; [34]): 2.168
- ListHits (tobacco roots; [34]): 2
- Enrichment_score (tobacco roots; [35]): 0.8531
- ListHits (tobacco roots; [35]): 1
- Enrichment_score (tobacco roots; [36]): 1.837
- ListHits (tobacco roots; [36]): 3
- Enrichment_score (tobacco roots; [37]): 1.735
- ListHits (tobacco roots; [37]): 1
- Enrichment_score (tobacco roots; [38]): 3.294
- ListHits (tobacco roots; [38]): 5
- Enrichment_score (tobacco roots; [39]): 0.9637
- ListHits (tobacco roots; [39]): 2
- Enrichment_score (tobacco roots; [40]): 3.186
- ListHits (tobacco roots; [40]): 3
- Enrichment_score (tobacco roots; [41]): 1.837
- ListHits (tobacco roots; [41]): 3
- Enrichment_score (tobacco roots; [42]): 6.155
- ListHits (tobacco roots; [42]): 55
- Enrichment_score (tobacco roots; [43]): 0.9548
- ListHits (tobacco roots; [43]): 2
- Enrichment_score (tobacco roots; [44]): 1.706
- ListHits (tobacco roots; [44]): 2
- Enrichment_score (tobacco roots; [45]): 1.652
- ListHits (tobacco roots; [45]): 2
- Enrichment_score (tobacco roots; [46]): 1.323
- ListHits (tobacco roots; [46]): 3
- Enrichment_score (tobacco roots; [47]): 1.679
- ListHits (tobacco roots; [47]): 4
- Enrichment_score (tobacco roots; [48]): 1.369
- ListHits (tobacco roots; [48]): 2
- Enrichment_score (tobacco roots; KEGG ko02010 ABC transporters): 2.788
- ListHits (tobacco roots; KEGG ko02010 ABC transporters): 3
- Enrichment_score (tobacco roots; [49]): 1.1072
- ListHits (tobacco roots; [49]): 1
- Enrichment_score (tobacco roots; [50]): 0.9727
- ListHits (tobacco roots; [50]): 2
- Enrichment_score (tobacco roots; [51]): 1.665
- ListHits (tobacco roots; [51]): 4
- Enrichment_score (tobacco roots; [52]): 0.9376
- ListHits (tobacco roots; [52]): 2
- Enrichment_score (tobacco roots; [53]): 0.7381
- ListHits (tobacco roots; [53]): 2
- Enrichment_score (tobacco roots; [54]): 1.411
- ListHits (tobacco roots; [54]): 18
- Enrichment_score (tobacco roots; [55]): 0.6505
- ListHits (tobacco roots; [55]): 1
- Enrichment_score (tobacco roots; KEGG ko04146 Peroxisome): 1.786
- ListHits (tobacco roots; KEGG ko04146 Peroxisome): 7
- Enrichment_score (tobacco roots; [56]): 1.229
- ListHits (tobacco roots; [56]): 3
- Enrichment_score (tobacco roots; [57]): 1.436
- ListHits (tobacco roots; [57]): 4
- Enrichment_score (tobacco roots; KEGG ko04360 Axon guidance): 1.183
- ListHits (tobacco roots; KEGG ko04360 Axon guidance): 2
- Enrichment_score (tobacco roots; [58]): 1.8259
- ListHits (tobacco roots; [58]): 2
- Enrichment_score (tobacco roots; [59]): 1.8259
- ListHits (tobacco roots; [59]): 2
- Enrichment_score (tobacco roots; [60]): 7.434
- ListHits (tobacco roots; [60]): 2
- Enrichment_score (tobacco roots; [61]): 1.449
- ListHits (tobacco roots; [61]): 12
- Enrichment_score (tobacco roots; [62]): 1.9637
- ListHits (tobacco roots; [62]): 2
- Enrichment_score (tobacco roots; [63]): 2.365
- ListHits (tobacco roots; [63]): 2
- Enrichment_score (tobacco roots; [64]): 1.794
- ListHits (tobacco roots; [64]): 2
- Enrichment_score (tobacco roots; [65]): 1.03
- ListHits (tobacco roots; [65]): 2
- Enrichment_score (tobacco roots; [66]): 1.352
- ListHits (tobacco roots; [66]): 2
- Enrichment_score (tobacco roots; [67]): 1.239
- ListHits (tobacco roots; [67]): 1
- Enrichment_score (tobacco roots; [68]): 2.42
- ListHits (tobacco roots; [68]): 4
- Enrichment_score (tobacco roots; KEGG ko04727 GABAergic synapse): 1.466
- ListHits (tobacco roots; KEGG ko04727 GABAergic synapse): 2
- Enrichment_score (tobacco roots; [69]): 1.14
- ListHits (tobacco roots; [69]): 3
- Enrichment_score (tobacco roots; [70]): 2.775
- ListHits (tobacco roots; [70]): 4
- Enrichment_score (tobacco roots; [71]): 0.8531
- ListHits (tobacco roots; [71]): 2
- Enrichment_score (tobacco roots; [72]): 0.5913
- ListHits (tobacco roots; [72]): 2
- Enrichment_score (tobacco roots; KEGG ko04924 Renin secretion): 1.859
- ListHits (tobacco roots; KEGG ko04924 Renin secretion): 2
- Enrichment_score (tobacco roots; [73]): 6.938
- ListHits (tobacco roots; [73]): 2
- Enrichment_score (tobacco roots; [74]): 4.337
- ListHits (tobacco roots; [74]): 1
- Enrichment_score (tobacco roots; KEGG ko04976 Bile secretion): 2.838
- ListHits (tobacco roots; KEGG ko04976 Bile secretion): 3
- Expression levels of growth-related genes in tobacco roots (tobacco roots; RNA-seq, GO growth, vs DMSO): differentially elevated the expression levels of most growth‐related genes
- Expression levels of RBOHs, MYB44, TGA2, WRKY19, EFR, FLS2, PR1 and PDF1.4 in tobacco roots (tobacco roots; RNA-seq, vs DMSO): significantly increased the expression levels
- Antioxidant genes (GO antioxidant activity) up-regulated (tobacco roots; [75]): 60 of 61
- Immune genes (GO immune system process) up-regulated (tobacco roots; [75]): 70 of 82
- Environmental adaptation-related genes (KEGG) up-regulated (tobacco roots; tobacco roots, coregulated genes, vs DMSO): 22 of 29
- Cotyledon bleaching caused by R. solanacearum (Ralstonia solanacearum [3]): effectively prevented the cotyledon bleaching
- Effect on established tobacco bacterial wilt (Ralstonia solanacearum [4]): could not completely prevent the occurrence of the diseases or cure already diseased plants
- Inhibition rate of THE1-CD kinase activity (THE1‐CD): lower than 55%
- Expression of FRK1 in roots (FRK1): did not affect the expression levels

From article PMC9829398 (Plant Biotechnology Journal, 2022)
